Patent publication US11578077B2, “Spiro-oxazolones” (Hoffmann-La Roche Inc., priority 2013, dated 2023)

target: human V1a receptor (Homo sapiens (Human), UniProt P37288); test: human V1a receptor binding studies (3H-Vasopressin, SPA beads); conditions: membranes of HEK293 cells transiently transfected with human V1a receptor, Ki by Cheng-Prusoff
Experimental: The human V1a receptor was cloned by RT-PCR from total human liver RNA. The coding sequence was subcloned in an expression vector after sequencing to confirm the identity of the amplified sequence. […] Cell membranes were prepared from HEK293 cells transiently transfected with the expression vector and grown in 20 liter fermenters with the following protocol.
50 g of cells are re-suspended in 30 ml freshly prepared ice cold Lysis buffer ([…] HEPES. 1 mM EDTA, 10 mM MgCl2 adjusted to pH=7.4+complete cocktail of protease inhibitor (Roche Diagnostics)). Homogenized with Polytron for 1 min and sonicated on ice for 2×2 minutes at 80% intensity (Vibracell sonicator). The preparation is centrifuged 20 min at 500 g at 4° C., the pellet is discarded and the supernatant centrifuged 1 hour at 43'000 g at 4° C. (19'000 rpm). The pellet is re-suspended in 12.5 ml Lysis buffer+12.5 ml Sucrose 20% and homogenized using a Polytron for 1-2 min. The protein concentration is determined by the Bradford method and aliquots are stored at −80° C. until use. For binding studies 60 mg Yttrium silicate SPA beads (Amersham) are mixed with an aliquot of membrane in binding buffer (50 mM Tris, 120 mM NaCl, 5 mM KCl, 2 mM CaCl2, 10 mM MgCl) for 15 minutes with mixing. 50 μl of bead/membrane mixture is then added to each well of a 96 well plate, followed by […] of 4 nM 3H-Vasopressin (American Radiolabeled Chemicals). For total binding measurement 100 μl of binding buffer are added to the respective wells, for non-specific binding 100 μl of […] cold vasopressin and for compound testing 100 μl of a serial dilution of each compound in 2% DMSO. The plate is incubated 1 h at room temperature, centrifuged 1 min at 1000 g and counted on a Packard Top-Count. Non-specific binding counts are subtracted from each well and data is normalized to the maximum specific binding set at 100%. To calculate an IC 50 the curve is fitted using a non-linear regression model (XLfit) and the Ki is calculated using the Cheng-Prussoff equation.

Sequence of human V1a receptor (P37288 whole entry): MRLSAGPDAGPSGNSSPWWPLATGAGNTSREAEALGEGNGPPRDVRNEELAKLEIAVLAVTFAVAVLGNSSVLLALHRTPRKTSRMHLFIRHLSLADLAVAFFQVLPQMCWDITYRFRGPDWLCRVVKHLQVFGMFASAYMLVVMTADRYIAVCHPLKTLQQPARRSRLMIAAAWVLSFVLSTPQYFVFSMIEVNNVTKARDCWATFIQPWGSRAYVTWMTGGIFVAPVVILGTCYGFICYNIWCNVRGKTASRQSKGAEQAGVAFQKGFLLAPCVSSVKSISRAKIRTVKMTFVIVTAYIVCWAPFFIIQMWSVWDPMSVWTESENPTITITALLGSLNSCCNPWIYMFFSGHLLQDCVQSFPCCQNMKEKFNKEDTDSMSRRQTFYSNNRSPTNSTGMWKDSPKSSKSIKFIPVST

SMILES	pKi hV1a
O=C1OC2(CCN(C3=NC(=O)C4(CCc5ccccc5C4)O3)CC2)c2ccccc21 (stereo not drawn) [Example 65, 1′-(4′-oxo-3,4-dihydro-1H,4′H-spiro[naphthalene-2,5′-[1,3]oxazol]-2′-yl)-1′H,3H-spiro[2-benzofuran-1,4′-piperidin]-3-one]	8.8
COc1cc2c(cc1OC)CC1(C2)OC(N2CCC3(CC2)OC(=O)c2ccccc23)=NC1=O [Example 32, 1′-(5,6-dimethoxy-4′-oxo-1,3-dihydro-4′H-spiro[indene-2,5′-[1,3]oxazol)-2′-yl)-3H-spiro[2-benzofuran-1,4′-piperidin]-3-one]	6.4
O=C1OC2(CCN(C3=NC(=O)C4(Cc5cc(O)c(O)cc5C4)O3)CC2)c2ccccc21 [Example 33, 1′-(5,6-dihydroxy-4′-oxo-1,3-dihydro-4′H-spiro[indene-2,5′-[1,3]oxazol]-2′-yl)-3H-spiro[2-benzofuran-1,4′-piperidin]-3-one]	6.7
O=C1OC2(CCN(C3=NC(=O)C4(Cc5ccccc5C4)O3)CC2)c2cc(O)c(O)cc21 [Example 13, 5,6-dihydroxy-1′-(4′-oxo-1,3-dihydro-4′H-spiro[indene-2,5′-[1,3]oxazol]-2′-yl)-3H-spiro[2-benzofuran-1,4′-piperidin]-3-one]	8.2
O=C1N=C(N2CCC3(CC2)OCc2ccccc23)O[C@]12CCc1ccccc12 [Example 19, (−)-2′-(1H,3H-spiro[2-benzofuran-1,4′-piperidin]-1′-yl)-2,3-dihydro-4′H-spiro[indene-1,5′-[1,3]oxazol]-4′-one]	7.6
Cc1ccc2c(c1)C[C@@]1(C2)OC(N2CCC3(CC2)OC(=O)c2ccccc23)=NC1=O [Example 23, (+)-1′-[5-methyl-4′-oxo-1,3-dihydro-4′H-spiro[indene-2,5′-[1,3]oxazol]-2′-yl]-3H-spiro[2-benzofuran-1,4′-piperidin]-3-one]	7.3
O=C1OC2(CCN(C3=NC(=O)C4(Cc5ccccc5C4)O3)CC2)c2ccc(Br)cc21 [Example 18, 5-bromo-1′-(4′-oxo-1,3-dihydro-4′H-spiro[indene-2,5′-[1,3]oxazol]-2′-yl)-3H-spiro[2-benzofuran-1,4′-piperidin]-3-one]	8.4
O=C1OC2(CCN(C3=NC(=O)C4(Cc5cc(F)c(F)cc5C4)O3)CC2)c2ccccc21 [Example 35, 1′-(5,6-difluoro-4′-oxo-1,3-dihydro-4′H-spiro[indene-2,5′-[1,3]oxazol]-2′-yl)-3H-spiro[2-benzofuran-1,4′-piperidin]-3-one]	8.9
COc1cc2c(cc1OC)C1(CCN(C3=NC(=O)C4(Cc5ccccc5C4)O3)CC1)OC2=O [Example 12, 5,6-dimethoxy-1′-(4′-oxo-1,3-dihydro-4′H-spiro[indene-2,5′-[1,3]oxazol)-2′-yl)-3H-spiro[2-benzofuran-1,4′-piperidin]-3-one]	7.5
Cc1cccc2c1C(=O)OC21CCN(C2=NC(=O)C3(Cc4ccccc4C3)O2)CC1 [Example 5, 4-methyl-1′-(4′-oxo-1,3-dihydro-4′H-spiro[indene-2,5′-[1,3]oxazol]-2′-yl)-3H-spiro[2-benzofuran-1,4′-piperidin]-3-one]	8.0
O=C1OC2(CCN(C3=NC(=O)C4(Cc5ccccc5C4)O3)CC2)c2ccc(O)cc21 [Example 9, 5-hydroxy-1′-(4′-oxo-1,3-dihydro-4′H-spiro[indene-2,5′-[1,3]oxazol]-2′-yl)-3H-spiro[2-benzofuran-1,4′-piperidin]-3-one]	9.7
O=C1OC2(CCN(C3=NC(=O)C4(Cc5ccccc5C4)O3)CC2)c2cccc(F)c21 [Example 14, 4-fluoro-1′-(4′-oxo-1,3-dihydro-4′H-spiro[indene-2,5′-[1,3]oxazol]-2′-yl)-3H-spiro[2-benzofuran-1,4′-piperidin]-3-one]	8.5
O=C1OC2(CCN(C3=NC(=O)C4(Cc5ccccc5C4)O3)CC2)c2c1ccnc2Cl [Example 55, 4-chloro-1′-(4-oxo-1,3-dihydro-4′H-spiro[indene-2,5′-[1,3]oxazol]-2′-yl)-1H-spiro[furo[3,4-c]pyridine-3,4′-piperidin]-1-one]	6.5
Cc1ccc2c(c1)CC1(C2)OC(N2CCC3(CC2)OC(=O)c2ccccc23)=NC1=O (stereo not drawn) [Example 22, 1′-(5-methyl-4′-oxo-1,3-dihydro-4′H-spiro[indene-2,5′-[1,3]oxazol]-2′-yl)-3H-spiro[2-benzofuran-1,4′-piperidin]-3-one]	8.9

The remaining lines, values ahead:

pKi hV1a	SMILES
8.5	O=C1N=C(N2CCC3(CC2)OCc2ccccc23)OC12Cc1cnc(C(F)(F)F)cc1C2 (stereo not drawn) [Example 61, 2′-(1′H,3H-spiro[2-benzofuran-1,4′-piperidin]-1′-yl)-3-(trifluoromethyl)-5,7-dihydro-4′H-spiro[cyclopenta[c]pyridine-6,5′-[1,3]oxazol]-4′-one]
8.3	Cc1cnc2c(c1)C1(CCN(C3=NC(=O)C4(Cc5ccccc5C4)O3)CC1)OC2 [Example 52, 2′-(3-methyl-1′H,7H-spiro[furo[3,4-b]pyridine-5,4′-piperidin]-1′-yl)-1,3-dihydro-4′H-spiro[indene-2,5′-[1,3]oxazol]-4′-one]
9.2	CC1(C)OC2(CCN(C3=NC(=O)C4(Cc5ccccc5C4)O3)CC2)c2ncccc21 [Example 38, 2′-(5,5-dimethyl-1′H,5H-spiro[furo[3,4-b]pyridine-7,4′-piperidin]-1′-yl)-1,3-dihydro-4′H-spiro[indene-2,5′-[1,3]oxazol]-4′-one]
9.0	O=C1N=C(N2CCC3(CC2)OCc2ccccc23)OC12Cc1ccc(F)cc1C2 (stereo not drawn) [Example 30, 5-fluoro-2′-(1′H,3H-spiro[2-benzofuran-1,4′-piperidin]-1′-yl)-1,3-dihydro-4′H-spiro[indene-2,5′-[1,3]oxazol]-4′-one]
10.2	CC1(C)OC2(CCN(C3=NC(=O)C4(Cc5ccccc5C4)O3)CC2)c2cc(O)cnc21 [Example 71, 2′-(3-hydroxy-7,7-dimethyl-1′H,7H-spiro[furo[3,4-b]pyridine-5,4′-piperidin]-1′-yl)-1,3-dihydro-4′H-spiro[indene-2,5′-[1,3]oxazol]-4′-one]
7.7	O=C1N=C(N2CCC3(CC2)OCc2ccccc23)OC12Cc1cnc(C(F)F)cc1C2 (stereo not drawn) [Example 60, 3-(difluoromethyl)-2′-(1′H,3H-spiro[2-benzofuran-1,4′-piperidin]-1′-yl)-5,7-dihydro-4′H-spiro[cyclopenta[c]pyridine-6,5′-[1,3]oxazol]-4′-one]
8.2	O=C1N=C(N2CCC3(CC2)OCc2ccccc23)OC12Cc1cccnc1C2 (stereo not drawn) [Example 56, 2′-(1′H,3H-spiro[2-benzofuran-1,4′-piperidin]-1′-yl)-5,7-dihydro-4′H-spiro[cyclopenta[b]pyridine-6,5′-[1,3]oxazol]-4′-one]
7.1	Cc1cc2c(cc1C)CC1(C2)OC(N2CCC3(CC2)OCc2ccccc23)=NC1=O [Example 25, 5,6-dimethyl-2′-(1′H,3H-spiro[2-benzofuran-1,4′-piperidin]-1′-yl)-1,3-dihydro-4′H-spiro[indene-2,5′-[1,3]oxazol]-4′-one]
8.7	Cc1cnc2c(c1)COC21CCN(C2=NC(=O)C3(Cc4ccccc4C3)O2)CC1 [Example 44, 2′-(3-methyl-1′H,5H-spiro[furo[3,4-b]pyridine-7,4′-piperidin]-1′-yl)-1,3-dihydro-4′H-spiro[indene-2,5′-[1,3]oxazol]-4′-one]
8.2	Cc1cccc2c1COC21CCN(C2=NC(=O)C3(Cc4ccccc4C3)O2)CC1 [Example 4]
9.5	O=C1N=C(N2CCC3(CC2)OCc2ccccc23)OC12Cc1ccccc1C2 [Example 1, 2′-(1′H,3H-spiro[2-benzofuran-1,4′-piperidin]-1′-yl)-1,3-dihydro-4′H-spiro[indene-2,5′-[1,3]oxazol]-4′-one]

same assay, conditions: membranes of HEK293 cells transiently transfected with human V1a receptor, Ki by Cheng-Prusoff, read-out: pKi hV1a (converted)

Ki	SMILES
3.98 nM	O=C1OC2(CCN(C3=NC(=O)[C@@]4(CCc5ccccc5C4)O3)CC2)c2ccccc21 (single isomer, unassigned; enantiomer b) [Example 67, 1′-[4′-oxo-3,4-dihydro-1H,4′H-spiro[naphthalene-2,5′-[1,3]oxazol]-2′-yl]-1′H,3H-spiro[2-benzofuran-1,4′-piperidin]-3-one enantiomer B]
0.794 nM	O=C1OC2(CCN(C3=NC(=O)[C@]4(CCc5ccccc5C4)O3)CC2)c2ccccc21 (single isomer, unassigned; enantiomer a) [Example 66, 1′-[4′-oxo-3,4-dihydro-1H,4′H-spiro[naphthalene-2,5′-[1,3]oxazol]-2′-yl]-1′H,3H-spiro[2-benzofuran-1,4′-piperidin]-3-one enantiomer A]
